Measured values published in patent US11998600B2, “Enhancing the therapeutic activity of an immune checkpoint inhibitor” (MaineHealth, priority 2015, dated 2024).

Legend:
[1] = tested on: chick chorioallantoic membrane (CAM); experiment: Chick CAM inflammation assay, induction by RGD collagen peptides; type: in vivo; conditions: chick CAM, no cortisone acetate; FIG. 5D
Experimental: (§1) The chick chorioallantoic membrane (CAM) assays were carried out with some modifications (19). For all experiments CAMs of 10-day-old chick embryos obtained from Charles River (North Franklin, CT) were separated from the shell membrane. Filter discs either non-treated (inflammation assays) pretreated (angiogenesis assays) with cortisone acetate (3.0 mg/ml) containing RPMI only or FGF-2 (40 ng). CAMs were either non-treated or treated topically with Mab XL313, XL166 or a non-specific control antibody (10 μg/embryo every 24 h for three consecutive treatments). […] At the end of the incubation period the embryos were sacrificed and the CAM tissues were analyzed. Angiogenesis was quantified by counting the number of angiogenic branching blood vessels within the area of the filter disc. The angiogenic index was determined by subtracting the mean number of blood vessel branch points from untreated CAMs from each experimental condition. Eight to twelve embryos were used per condition and experiments were repeated at least three times.
The effects of the soluble RGD containing collagen peptides on inflammation were examined.

P38MAPK = experiment: Phosphorylated P38MAPK in CAM tissue lysates, Western blot; type: in vivo, chick; conditions: Image-J quantification, FIG. 6B
Experimental: as §1
Whole cell and CAM tissue lysates were collected in RIPA buffer supplemented with 1× protease inhibitor and 1× phosphatase inhibitor and were run on polyacrylamide gels using denaturing conditions. […] Western blot bands were quantified using Image J software based on pixel intensity.

β3-integrin = β3-integrin phosphorylation in endothelial cells attached to collagen peptides, Western blot; type: cell-based, human; conditions: HUVEC, absence of growth factors; FIG. 7C
Experimental: Endothelial cells (HUVECs or HRMVECs) were incubated in serum free media with 1 mM MgCl2, 0.2 mM MnCl2 in the presence of a Src inhibitor, PP2, (10 μM) a P38MAPK inhibitor, SB202190 (10 μM) or vehicle only (DMSO) for 10 min at 37° C. Treated cells were then seeded on to immobilized P-1 and P-2 and lysates were collected at 15 min.
Whole cell and CAM tissue lysates were collected in RIPA buffer supplemented with 1× protease inhibitor and 1× phosphatase inhibitor and were run on polyacrylamide gels using denaturing conditions. Prior to loading the gels, 6× sample buffer was added to each of the lysates (final concentration 1×) and boiled for five minutes. Twenty to 50 μg of total protein were loaded into each lane. For detection of proteins larger than 50 kD, 10% gels were used; for proteins smaller than 50 kD 15% gels were used. […] Western blot bands were quantified using Image J software based on pixel intensity.
Because both RGD containing peptides bind αvβ3 coupled with the differential effect of these peptides on angiogenesis and inflammation, it was determined whether the RGD peptides differentially altered αvβ3-mediated signaling. […] Therefore, the differential phosphorylation of these protein kinases following the early mechanical-mediated interactions with the RGD containing collagen peptides was assessed. […]

[2] = tested on: endothelial cells in which YAP was knocked down; experiment: Cell proliferation assay, endothelial cells transduced with YAP specific shRNA; type: cell-based, human; conditions: soluble peptide (FIG. 8H) or VEGF 50 ng/ml (FIG. 8I)
Experimental: HUVECs (WT, shYAP1 or control transfected) or HRMVECs were plated at 2,000 cells per well with complete EGM-2 media containing 2.0% FBS in the absence or presence of P-1, P-2 or P-C (100 ng/ml) and allowed to grow for 24 hours. Cell growth was monitored using a BrdU or MMT assay kits according to manufacturer's instructions. All assays were completed at least three times in triplicate wells.
Raw cells were transfected with 1 μg of HuSH shRNA plasmids for collagen type I, alpha 2 using Amaxa cell line nucleofector kit V (program #T024). Constructs expressing 21-nucleotide short hairpin RNAs (shRNA) targeting human YAP (shYAP) or non-targeting control (shNT, Sigma-Aldrich, SHC002) were used. Humantargeting shYAP1 lentiviral shRNA was obtained from the Thermo Scientific RNAi consortium (TRCN0000107625). Constructs were packaged into lentivirus, pseudotyped with the vesicular stomatitis virus glycoprotein. Transduction was performed by incubating cells with lentivirus, and stably transduced cells were subsequently used for studies. All cell lines were verified by morphology and mouse and human YAP-specific PCR. […] Endothelial cells were certified mycoplasma-negative by PCR (Lonza), and primary cell cultures were used within the indicated passage numbers. Cells were transduced and selected using puromycin.
Endothelial cells with YAP specific or non-specific shRNAs were transduced.

Sequence: QGPRGDKGE [Mab P-2]
- CAM inflammation following stimulation with peptide [1]: significantly (P<0.05) induced inflammation to nearly that of FGF-2 stimulation
- increase in phosphorylation of P38MAPK as compared to controls (P38MAPK): 4 fold
- increase of β3 phosphorylation, P-2 as compared to P-1 (β3-integrin): over 3 fold
- endothelial cell growth in YAP knock down cells [2]: failed to induce growth
